Columns and labels:
SLA-3*04:01 = assay: Peptide-MHC class I complex stability, scintillation proximity assay (SPA); design: species or system pig; details: biotinylated recombinant SLA heavy chain, 125I-β2m, excess unlabeled β2m, read every 40 min, number only if t1/2 ≥ 0.5 h, '-' = not stably binding
Method: (§1) The stability of the selected 198 peptides in complex with relevant SLA class I molecules and β2m was determined using a scintillation proximity assay (SPA), as previously described (Harndahl et al., [2011]). Briefly, biotinylated recombinant MHC class I heavy chains were attached to a streptavidin-coated scintillation microplate together with iodinated (^125I) β2m and candidate peptide resulting in a scintillation signal, which was consecutively measured every 40 min by a scintillation plate counter. The duration of this signal is directly correlated to the stability of the peptide-MHC class I-β2m complex under dissociating conditions and in the presence of excess unlabeled β2m (Harndahl et al., [2011]). Peptides with a half-life ≥ 0.5 h were selected as stable binders.

PBMCs = assay: In vitro peptide stimulation of porcine PBMCs, IFN-γ release assay (ELISA); type: cell-based, pig; design: key to T cell response: “x” indicates that a response was found to this given peptide at least once; details: 5 μg/ml peptide; for T cell response: PBMCs of immunized pigs, 2 × 10^5/well, 67.5–70.0 h, IFN-γ ELISA, response = 2-fold increase vs day -2 and at least 25 pg/ml IFN-γ, found at least once, SLA restriction not included
SLA-2*04:01 = assay: Peptide-MHC class I complex stability, scintillation proximity assay (SPA); design: species or system pig; details: biotinylated recombinant SLA heavy chain, 125I-β2m, excess unlabeled β2m, read every 40 min, number only if t1/2 ≥ 0.5 h, '-' = not stably binding
Method: as §1

SLA-2*05:02 = assay: as above; design: species or system pig; details: biotinylated recombinant SLA heavy chain, 125I-β2m, excess unlabeled β2m, read every 40 min, number only if t1/2 ≥ 0.5 h, '-' = not stably binding
Method: as §1

KNKRRRGCPI [RhoC31, porcine RhoC-derived 9-11mer peptide]
Binder (t1/2 ≥ 0.5 h): half-life of peptide-SLA-3*04:01 complex (SLA-3*04:01): 0.7 h | T cell response (PBMCs): x

ANRISAFGY [RhoC2, porcine RhoC-derived 9-11mer peptide]
Binder (t1/2 ≥ 0.5 h): half-life of peptide-SLA-3*04:01 complex (SLA-3*04:01): - (t1/2 (hours) is listed for each of the stably binding peptides (t1/2 ≥ 0.5 h)) | Binder (t1/2 ≥ 0.5 h): half-life of peptide-SLA-2*04:01 complex (SLA-2*04:01): 2.6 h | T cell response (PBMCs): x

RNYHLQIVT [IDO110, porcine IDO-derived 9-11mer peptide]
Binder (t1/2 ≥ 0.5 h): half-life of peptide-SLA-3*04:01 complex (SLA-3*04:01): - (t1/2 (hours) is listed for each of the stably binding peptides (t1/2 ≥ 0.5 h)) | Binder (t1/2 ≥ 0.5 h): half-life of peptide-SLA-2*04:01 complex (SLA-2*04:01): - (t1/2 (hours) is listed for each of the stably binding peptides (t1/2 ≥ 0.5 h))

FLHSLESGPSV [IDO23, porcine IDO-derived 9-11mer peptide]
Binder (t1/2 ≥ 0.5 h): half-life of peptide-SLA-2*05:02 complex (SLA-2*05:02): 0.6 h | T cell response (PBMCs): x

AIAKNLPELI [IDO3, porcine IDO-derived 9-11mer peptide]
Binder (t1/2 ≥ 0.5 h): half-life of peptide-SLA-2*05:02 complex (SLA-2*05:02): 0.9 h

KNMDILFSF [IDO58, porcine IDO-derived 9-11mer peptide]
Binder (t1/2 ≥ 0.5 h): half-life of peptide-SLA-3*04:01 complex (SLA-3*04:01): - (t1/2 (hours) is listed for each of the stably binding peptides (t1/2 ≥ 0.5 h)) | Binder (t1/2 ≥ 0.5 h): half-life of peptide-SLA-2*04:01 complex (SLA-2*04:01): 8.0 h | T cell response (PBMCs): x

LSYPDTDVI [RhoC35, porcine RhoC-derived 9-11mer peptide]
Binder (t1/2 ≥ 0.5 h): half-life of peptide-SLA-2*04:01 complex (SLA-2*04:01): - (t1/2 (hours) is listed for each of the stably binding peptides (t1/2 ≥ 0.5 h)) | Binder (t1/2 ≥ 0.5 h): half-life of peptide-SLA-2*05:02 complex (SLA-2*05:02): - (t1/2 (hours) is listed for each of the stably binding peptides (t1/2 ≥ 0.5 h))

DVILMCFSI [RhoC12, porcine RhoC-derived 9-11mer peptide]
Binder (t1/2 ≥ 0.5 h): half-life of peptide-SLA-2*05:02 complex (SLA-2*05:02): 5.9 h | T cell response (PBMCs): x

EVKHFCPNVPI [RhoC24, porcine RhoC-derived 9-11mer peptide]
Binder (t1/2 ≥ 0.5 h): half-life of peptide-SLA-2*05:02 complex (SLA-2*05:02): 5.6 h | T cell response (PBMCs): x

LSYPDTDVILM [RhoC37, porcine RhoC-derived 9-11mer peptide]
Binder (t1/2 ≥ 0.5 h): half-life of peptide-SLA-2*04:01 complex (SLA-2*04:01): - (t1/2 (hours) is listed for each of the stably binding peptides (t1/2 ≥ 0.5 h)) | Binder (t1/2 ≥ 0.5 h): half-life of peptide-SLA-2*05:02 complex (SLA-2*05:02): 1.4 h

ELAKMKQEPVR [RhoC16, porcine RhoC-derived 9-11mer peptide]
Binder (t1/2 ≥ 0.5 h): half-life of peptide-SLA-2*05:02 complex (SLA-2*05:02): 0.8 h | T cell response (PBMCs): x

EVKHFCPNV [RhoC23, porcine RhoC-derived 9-11mer peptide]
Binder (t1/2 ≥ 0.5 h): half-life of peptide-SLA-2*05:02 complex (SLA-2*05:02): 2.0 h | T cell response (PBMCs): x

EIAAASAIKV [IDO15, porcine IDO-derived 9-11mer peptide]
Binder (t1/2 ≥ 0.5 h): half-life of peptide-SLA-2*05:02 complex (SLA-2*05:02): 2.6 h | T cell response (PBMCs): x | maximum level of secreted IFN-γ (PBMCs; pig 2042 (CASAC), day 12, following 72 h of stimulation, ELISA): 280 pg/mL

LSEKLGLPPI [IDO72, porcine IDO-derived 9-11mer peptide]
Binder (t1/2 ≥ 0.5 h): half-life of peptide-SLA-2*05:02 complex (SLA-2*05:02): - (t1/2 (hours) is listed for each of the stably binding peptides (t1/2 ≥ 0.5 h))

RNFLHSLES [IDO105, porcine IDO-derived 9-11mer peptide]
Binder (t1/2 ≥ 0.5 h): half-life of peptide-SLA-3*04:01 complex (SLA-3*04:01): 14.7 h | T cell response (PBMCs): x

HLQIVTKYIVI [IDO39, porcine IDO-derived 9-11mer peptide]
Binder (t1/2 ≥ 0.5 h): half-life of peptide-SLA-2*05:02 complex (SLA-2*05:02): 0.6 h

HKALEVFHQI [IDO36, porcine IDO-derived 9-11mer peptide]
Binder (t1/2 ≥ 0.5 h): half-life of peptide-SLA-2*05:02 complex (SLA-2*05:02): - (t1/2 (hours) is listed for each of the stably binding peptides (t1/2 ≥ 0.5 h))

YVPTVFENYI [RhoC61, porcine RhoC-derived 9-11mer peptide]
Binder (t1/2 ≥ 0.5 h): half-life of peptide-SLA-2*05:02 complex (SLA-2*05:02): 0.7 h

DIRKVLPRNI [IDO10, porcine IDO-derived 9-11mer peptide]
Binder (t1/2 ≥ 0.5 h): half-life of peptide-SLA-2*05:02 complex (SLA-2*05:02): - (t1/2 (hours) is listed for each of the stably binding peptides (t1/2 ≥ 0.5 h))

ELPHPYDAWI [IDO18, porcine IDO-derived 9-11mer peptide]
Binder (t1/2 ≥ 0.5 h): half-life of peptide-SLA-2*05:02 complex (SLA-2*05:02): 5.8 h

HLQIVTKYI [IDO38, porcine IDO-derived 9-11mer peptide]
Binder (t1/2 ≥ 0.5 h): half-life of peptide-SLA-2*05:02 complex (SLA-2*05:02): 0.5 h

QRLAHLVLGY [IDO102, porcine IDO-derived 9-11mer peptide]
Binder (t1/2 ≥ 0.5 h): half-life of peptide-SLA-3*04:01 complex (SLA-3*04:01): - (t1/2 (hours) is listed for each of the stably binding peptides (t1/2 ≥ 0.5 h)) | Binder (t1/2 ≥ 0.5 h): half-life of peptide-SLA-2*04:01 complex (SLA-2*04:01): - (t1/2 (hours) is listed for each of the stably binding peptides (t1/2 ≥ 0.5 h))

ENIPEKWTPEV [RhoC18, porcine RhoC-derived 9-11mer peptide]
Binder (t1/2 ≥ 0.5 h): half-life of peptide-SLA-2*05:02 complex (SLA-2*05:02): 1.5 h | T cell response (PBMCs): x
